Tests used:
[1] = test system: E. coli biofilm; test: E. coli biofilm formation on stainless steel surface; type: cell-based; conditions: 60 μg/mL, non-toxic concentration
[2] = test system: E. coli; test: E. coli cell growth (toxicity); type: cell-based; conditions: 60 μg/mL
[3] = test system: AI-2 synthesis; test: AI-2 synthesis in E. coli, bioluminescence assay with reporter strain Vibrio harveyi BB 170; type: cell-based; conditions: 60 μg/mL
Description: Biofilm formation relies on bacteria's secretion and sensing (quorum sensing) of signal molecules (called auto-inducer). […] Furanone #8 and 9 (60 μg/mL) inhibited AI-2 synthesis in E. coli 12.5- and 3.5-fold. […] 96: p. 1639-1644).

[4] = test system: AI-2 synthesis; conditions: 100 μg/mL; cited from earlier work

Structure (SMILES)	repression of E. coli biofilm formation, % of the surface coverage [1] [%]	E. coli cell growth [2]	inhibition of AI-2 synthesis in E. coli [3] [fold]	inhibition of AI-2 synthesis [4] [fold]
O=C1O/C(=C/Br)C(Br)=C1CBr [furanone #10]	91	cell growth not affected		
CC1=CC(=C(Br)Br)OC1=O [furanone #9]	86	cell growth not affected	3.5	
CCCCC1=C(Br)/C(=C\Br)OC1=O [furanone #1]				2
